Structures are written as SMILES.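 Following 48 hours of exposure in 96-well plates, responses at five concentrations were used to interpolate endpoints linearly. GI50 = concentration required for 50% inhibition of growth. The concentration for full growth arrest is given as TGI.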 Bounds are passed on as bounds.

Among the test systems are HCC-2998 colon; M14 melanoma; HS 578T breast; SF-539 CNS; OVCAR-5 ovarian; SK-MEL-5 melanoma; NCI-H23 lung; SNB-75 CNS; UO-31 renal; EKVX NSCLC.
What all share (assay): growth of human tumour cells (NCI), 48 h

On to `Cc1cccc2c1CC(Cc1ccccc1C(=O)O)C2=O` (stereo not drawn), for which the TGI in the assay on HCC-2998 colon, in the assay on M14 melanoma, in the assay on HS 578T breast, with SF-539 CNS, with OVCAR-5 ovarian and with SK-MEL-5 melanoma was greater than 100 µM throughout. The TGI with NCI-H23 lung, with SNB-75 CNS, in the assay on UO-31 renal and in the assay on EKVX NSCLC was greater than 100 µM in each case.

For `O=C1c2cc3c(cc2-c2c1c1ccc(Cl)cc1c(=O)n2CCCn1ccnc1)OCO3`, the GI50 with HCC-2998 colon was 0.0737 µM; in the assay with M14 melanoma, less than 0.01 µM; with HS 578T breast it was 1.54 µM; in the assay on SF-539 CNS it was less than 0.01 µM; in the assay on OVCAR-5 ovarian, 0.0448 µM; with NCI-H23 lung, less than 0.01 µM. The GI50 with SNB-75 CNS was 0.0107 µM; in the assay on UO-31 renal, less than 0.01 µM; in the assay with EKVX NSCLC, 0.117 µM. The TGI in the assay on HCC-2998 colon is greater than 100 µM; with M14 melanoma, 11.9 µM; in the assay with HS 578T breast, greater than 100 µM; in the assay on SF-539 CNS, 0.0649 µM; in the assay on OVCAR-5 ovarian, 49 µM; in the assay on NCI-H23 lung it was 0.317 µM. For the same compound, the TGI is 4.14 µM with SNB-75 CNS, greater than 100 µM in the assay on UO-31 renal and greater than 100 µM in the assay on EKVX NSCLC.

As to `Cc1cc(S(=O)(=O)N=C2Nc3cccc4cccc(c34)N2)c(S)cc1Cl`, the TGI in the assay with HCC-2998 colon, in the assay on M14 melanoma, in the assay on HS 578T breast, in the assay with SF-539 CNS, in the assay on OVCAR-5 ovarian and in the assay with SK-MEL-5 melanoma was greater than 100 µM throughout. Also, the TGI in the assay with SNB-75 CNS, in the assay on UO-31 renal and in the assay on EKVX NSCLC was greater than 100 µM throughout.

Turning to `COC1(CC[C@H](C)COC2OC(CO)C(O)C(O)C2O)O[C@H]2C[C@H]3[C@@H]4CC=C5C[C@@H](OC6OC(CO)C(OC7OC(C)C(O)C(O)C7O)C(O)C6OC6OC(C)C(O)C(O)C6O)CC[C@]5(C)[C@H]4CC[C@]3(C)[C@H]2[C@@H]1C` (stereo partly drawn), the TGI is greater than 27.9 µM in the assay on HCC-2998 colon; 6.72 µM with HS 578T breast; 4.05 µM in the assay with SF-539 CNS; greater than 35.5 µM in the assay on OVCAR-5 ovarian; greater than 28.6 µM in the assay with SK-MEL-5 melanoma; 19.2 µM with NCI-H23 lung. Further, the TGI in the assay on SNB-75 CNS worked out at 3.8 µM; in the assay on UO-31 renal it was 6.79 µM; with EKVX NSCLC it was 98.8 µM.

On to `CC(=N/NC(=S)N(C)C)/C(=N\NC(=S)N(C)C)c1ccccc1`, for which the TGI is 2.99 µM in the assay with HCC-2998 colon; 4.14 µM in the assay with M14 melanoma; 6.26 µM in the assay with HS 578T breast; 25.8 µM in the assay with SF-539 CNS; 5.03 µM in the assay on OVCAR-5 ovarian; 3.14 µM in the assay on SK-MEL-5 melanoma. Moreover, the TGI amounted to 4.62 µM with SNB-75 CNS, 6.21 µM with UO-31 renal and 3.56 µM in the assay with EKVX NSCLC.

In the case of `CC(=O)Oc1ccn2nc(C)c(Br)c2c1`, the TGI with HCC-2998 colon, in the assay on M14 melanoma, with HS 578T breast, in the assay with SF-539 CNS, with OVCAR-5 ovarian and in the assay with SK-MEL-5 melanoma was greater than 100 µM in each case. The TGI is greater than 100 µM in the assay with NCI-H23 lung, 97.2 µM in the assay with SNB-75 CNS and greater than 100 µM in the assay on EKVX NSCLC.

Regarding `CSc1ccc(/C=C2\N=C(c3ccccc3)N(c3nc4cc(Cl)c(F)cc4s3)C2=O)cc1`, the TGI in the assay with HCC-2998 colon is greater than 100 µM; in the assay on M14 melanoma, greater than 100 µM; with HS 578T breast it was 97.3 µM; in the assay with SF-539 CNS, 82.6 µM; in the assay on OVCAR-5 ovarian, greater than 100 µM; in the assay with SK-MEL-5 melanoma, greater than 100 µM. Further, the TGI was 66.6 µM in the assay on SNB-75 CNS, greater than 100 µM in the assay on UO-31 renal and greater than 100 µM with EKVX NSCLC.

For `OC(CC(O)(C(F)(F)Cl)C(F)(F)Cl)c1ccccc1` (stereo not drawn), the TGI is greater than 10 µM in the assay with HCC-2998 colon; greater than 10 µM in the assay on HS 578T breast; greater than 10 µM in the assay with SF-539 CNS; greater than 10 µM in the assay on OVCAR-5 ovarian; 0.0502 µM with SK-MEL-5 melanoma; greater than 10 µM with NCI-H23 lung. Further, the TGI in the assay with SNB-75 CNS and with EKVX NSCLC was greater than 10 µM throughout.

Regarding `Cc1ccc(C)c(COCCOCn2cc(N3CCOCC3)c(=O)[nH]c2=O)c1`, the TGI in the assay on HCC-2998 colon, in the assay on M14 melanoma, with HS 578T breast, with SF-539 CNS, in the assay with OVCAR-5 ovarian and in the assay on NCI-H23 lung was greater than 100 µM in each case. Further, the TGI with SNB-75 CNS, in the assay on UO-31 renal and with EKVX NSCLC was greater than 100 µM each time.

In the case of `CC(C)(C)/C(O)=C\c1nc2cc(F)c(F)cc2[nH]c1=O`, the TGI with HCC-2998 colon, in the assay with M14 melanoma, in the assay with HS 578T breast, in the assay on SF-539 CNS, with SK-MEL-5 melanoma and in the assay with NCI-H23 lung was greater than 100 µM in each case. In addition, the TGI with SNB-75 CNS, with UO-31 renal and in the assay on EKVX NSCLC was greater than 100 µM throughout.

As to `COc1cc2c(c(OC)c1)[C@H](C)N(Cc1ccccc1)C(C)C2` (stereo partly drawn), the TGI was greater than 100 µM in the assay with HCC-2998 colon; greater than 100 µM in the assay with M14 melanoma; greater than 100 µM in the assay on HS 578T breast; 48.4 µM in the assay with SF-539 CNS; 90.3 µM in the assay with SK-MEL-5 melanoma; greater than 100 µM in the assay with NCI-H23 lung. Further, the TGI in the assay with SNB-75 CNS, with UO-31 renal and with EKVX NSCLC was greater than 100 µM each time.

For the origin of these results see PubChem BioAssay (NCI).
